What follows are compounds tested on AMARE (assay: Pre-emergence herbicidal action). Conditions: Table 4, pre-emergence (PE), 320 g/ha, scored after 3 weeks.
Assay type: in vivo
Text: (§1) Seeds of monocotyledonous and dicotyledonous weed plants and crop plants are laid out in sandy loam soil in wood-fiber pots and covered with soil. The compounds of the invention, formulated in the form of wettable powders (WP) or as emulsion concentrates (EC), are then applied to the surface of the covering soil in the form of an aqueous suspension or emulsion at a water application rate equating to 600 to 800 I/ha, with addition of 0.2% wetting agent. After the treatment, the pots are placed in a greenhouse and kept under good growth conditions for the trial plants. The damage to the test plants is scored visually after a test period of 3 weeks by comparison with untreated controls (herbicidal activity in percent (%): 100% activity=the plants have died, 0% activity=like control plants).
(§2) At the same time, inventive compounds leave Gramineae crops such as barley, wheat, rye, millet/sorghum, corn or rice virtually undamaged when applied pre-emergence, even at high active ingredient dosages. In addition, some substances are also harmless to dicotyledonous crops such as soya, cotton, oilseed rape, sugar beet or potatoes. […] The tables below illustrate, in an exemplary manner, the pre-emergence herbicidal action of the compounds according to the invention, the herbicidal activity being stated in percent.

Compound | Herbicidal action against AMARE
Nc1c(F)c(-c2ccc3sccc3c2)nc(C(=O)OCc2ccc(F)cc2F)c1Cl [Example I-56] | 80%
Nc1c(F)c(-c2ccc3sccc3c2)nc(C(=O)OCc2c(F)cc(F)cc2F)c1Cl [Example I-59] | 80%

What follows are compounds tested on ECHCG (assay: Pre-emergence herbicidal action). Conditions: Table 4, pre-emergence (PE), 320 g/ha, scored after 3 weeks.
Assay type: in vivo
Text: as §1, §2

Compound | Herbicidal action against ECHCG
Nc1c(F)c(-c2ccc3sccc3c2)nc(C(=O)OCc2ccc(F)cc2F)c1Cl [Example I-56] | 30%
Nc1c(F)c(-c2ccc3sccc3c2)nc(C(=O)OCc2c(F)cc(F)cc2F)c1Cl [Example I-59] | 30%

These compounds were tested on ABUTH (assay: Post-emergence herbicidal action). Conditions: Table 6, post-emergence (PO), 320 g/ha, assessed after about 3 weeks.
Assay type: in vivo
Method: (§3) Seeds of monocotyledonous and dicotyledonous weed and crop plants are laid out in sandy loam soil in wood-fiber pots, covered with soil and cultivated in a greenhouse under good growth conditions. 2 to 3 weeks after sowing, the test plants are treated at the one-leaf stage. The compounds of the invention, formulated in the form of wettable powders (WP) or as emulsion concentrates (EC), are then sprayed onto the green parts of the plants in the form of an aqueous suspension or emulsion at a water application rate equating to 600 to 800 l/ha, with addition of 0.2% wetting agent. After the test plants have been left to stand in the greenhouse under optimal growth conditions for about 3 weeks, the action of the preparations is assessed visually in comparison to untreated controls (herbicidal action in percent (%): 100% activity=the plants have died, 0% activity=like control plants). […] At the same time, inventive compounds leave Gramineae crops such as barley, wheat, rye, millet/sorghum, corn or rice virtually undamaged when applied post-emergence, even at high active ingredient dosages. In addition, some substances are also harmless to dicotyledonous crops such as soya, cotton, oilseed rape, sugar beet or potatoes. Some of the compounds according to the invention have high selectivity and are therefore suitable for controlling unwanted vegetation in agricultural crops by the post-emergence method. The tables below illustrate, in an exemplary manner, the post-emergence herbicidal action of the compounds according to the invention, the herbicidal activity being stated in percent.

Compound | Herbicidal action against ABUTH
Nc1cc(-c2ccc3occc3c2)nc(C(=O)OCc2cccc(Cl)c2)c1Cl [Example I-38] | 100%
Nc1cc(-c2ccc3ncsc3c2)nc(C(=O)OCc2ccc(F)cc2F)c1Cl [Example I-39] | 100%
Nc1cc(-c2ccc3ccoc3c2F)nc(C(=O)OCc2ccc(Cl)cc2)c1Cl [Example I-49] | 90%
Nc1c(F)c(-c2ccc3sccc3c2)nc(C(=O)OCc2ccc(F)cc2F)c1Cl [Example I-56] | 80%
COc1c(Cl)ccc(Cl)c1COC(=O)c1nc(-c2ccc3occc3c2)cc(N)c1Cl [Example I-57] | 90%
Nc1c(F)c(-c2ccc3sccc3c2)nc(C(=O)OCc2c(F)cc(F)cc2F)c1Cl [Example I-59] | 90%
Nc1c(F)c(-c2ccc3ncsc3c2)nc(C(=O)OCc2ccc(Cl)cc2)c1Cl [Example I-64] | 90%

Same assay, conditions: Table 7, post-emergence (PO), 320 g/ha, assessed after about 3 weeks

Compound | Herbicidal action against ABUTH
Nc1cc(-c2ccc3ncsc3c2)nc(C(=O)OCc2cccc(Cl)c2)c1Cl [Example I-60] | 90%
Nc1cc(-c2ccc3ncsc3c2)nc(C(=O)OCc2ccc(Cl)cc2)c1Cl [Example I-69] | 90%

Same assay, conditions: Table 8, post-emergence (PO), 320 g/ha, assessed after about 3 weeks

Compound | Herbicidal action against ABUTH
Nc1cc(-c2ccc3ncsc3c2)nc(C(=O)OCc2cccc(Cl)c2)c1Cl [Example I-60] | 90%
Nc1cc(-c2ccc3ncsc3c2)nc(C(=O)OCc2ccc(Cl)cc2)c1Cl [Example I-69] | 90%

Same assay, conditions: Table 9, post-emergence (PO), 320 g/ha, assessed after about 3 weeks

Compound | Herbicidal action against ABUTH
Nc1c(F)c(-c2cc3ccsc3cc2F)nc(C(=O)OCc2ccc(Cl)cc2)c1Cl [Example I-58] | 90%
Nc1cc(-c2ccc3occc3c2)nc(C(=O)OCc2ccccc2[N+](=O)[O-])c1Cl [Example I-62] | 100%
Nc1c(F)c(-c2ccc3occc3c2)nc(C(=O)OCc2ccc(Cl)cc2Cl)c1Cl [Example I-63] | 80%
Nc1c(F)c(-c2cc3ccoc3cc2F)nc(C(=O)OCc2ccc(Cl)cc2)c1Cl [Example I-68] | 80%
Nc1c(F)c(-c2cc3ccoc3cc2F)nc(C(=O)OCc2ccc(F)cc2)c1Cl [Example I-71] | 40%

The compounds below were run on AMARE (assay: Post-emergence herbicidal action). Conditions: Table 6, post-emergence (PO), 320 g/ha, assessed after about 3 weeks.
Assay type: in vivo
Method: as §3

Compound | Herbicidal action against AMARE
Nc1cc(-c2ccc3occc3c2)nc(C(=O)OCc2cccc(Cl)c2)c1Cl [Example I-38] | 100%
Nc1cc(-c2ccc3ncsc3c2)nc(C(=O)OCc2ccc(F)cc2F)c1Cl [Example I-39] | 90%
Nc1cc(-c2ccc3ccoc3c2F)nc(C(=O)OCc2ccc(Cl)cc2)c1Cl [Example I-49] | 100%
Nc1c(F)c(-c2ccc3sccc3c2)nc(C(=O)OCc2ccc(F)cc2F)c1Cl [Example I-56] | 90%
COc1c(Cl)ccc(Cl)c1COC(=O)c1nc(-c2ccc3occc3c2)cc(N)c1Cl [Example I-57] | 100%
Nc1c(F)c(-c2ccc3sccc3c2)nc(C(=O)OCc2c(F)cc(F)cc2F)c1Cl [Example I-59] | 90%
Nc1c(F)c(-c2ccc3ncsc3c2)nc(C(=O)OCc2ccc(Cl)cc2)c1Cl [Example I-64] | 90%

Same assay, conditions: Table 7, post-emergence (PO), 320 g/ha, assessed after about 3 weeks

Compound | Herbicidal action against AMARE
Nc1cc(-c2ccc3ncsc3c2)nc(C(=O)OCc2cccc(Cl)c2)c1Cl [Example I-60] | 80%
Nc1cc(-c2ccc3ncsc3c2)nc(C(=O)OCc2ccc(Cl)cc2)c1Cl [Example I-69] | 100%

Same assay, conditions: Table 8, post-emergence (PO), 320 g/ha, assessed after about 3 weeks

Compound | Herbicidal action against AMARE
Nc1cc(-c2ccc3ncsc3c2)nc(C(=O)OCc2cccc(Cl)c2)c1Cl [Example I-60] | 80%
Nc1cc(-c2ccc3ncsc3c2)nc(C(=O)OCc2ccc(Cl)cc2)c1Cl [Example I-69] | 100%

Same assay, conditions: Table 9, post-emergence (PO), 320 g/ha, assessed after about 3 weeks

Compound | Herbicidal action against AMARE
Nc1c(F)c(-c2cc3ccsc3cc2F)nc(C(=O)OCc2ccc(Cl)cc2)c1Cl [Example I-58] | 100%
Nc1cc(-c2ccc3occc3c2)nc(C(=O)OCc2ccccc2[N+](=O)[O-])c1Cl [Example I-62] | 40%
Nc1c(F)c(-c2ccc3occc3c2)nc(C(=O)OCc2ccc(Cl)cc2Cl)c1Cl [Example I-63] | 80%
Nc1c(F)c(-c2cc3ccoc3cc2F)nc(C(=O)OCc2ccc(Cl)cc2)c1Cl [Example I-68] | 80%
Nc1c(F)c(-c2cc3ccoc3cc2F)nc(C(=O)OCc2ccc(F)cc2)c1Cl [Example I-71] | 80%

The compounds below were run on ECHCG (assay: Post-emergence herbicidal action). Conditions: Table 7, post-emergence (PO), 320 g/ha, assessed after about 3 weeks.
Assay type: in vivo
Method: as §3

Compound | Herbicidal action against ECHCG
Nc1cc(-c2ccc3ncsc3c2)nc(C(=O)OCc2cccc(Cl)c2)c1Cl [Example I-60] | 90%
Nc1cc(-c2ccc3ncsc3c2)nc(C(=O)OCc2ccc(Cl)cc2)c1Cl [Example I-69] | 90%

Same assay, conditions: Table 8, post-emergence (PO), 320 g/ha, assessed after about 3 weeks

Compound | Herbicidal action against ECHCG
Nc1cc(-c2ccc3ncsc3c2)nc(C(=O)OCc2cccc(Cl)c2)c1Cl [Example I-60] | 90%
Nc1cc(-c2ccc3ncsc3c2)nc(C(=O)OCc2ccc(Cl)cc2)c1Cl [Example I-69] | 90%

These compounds were tested on SETVI (assay: Post-emergence herbicidal action). Conditions: Table 6, post-emergence (PO), 320 g/ha, assessed after about 3 weeks.
Assay type: in vivo
Method: as §3

Compound | Herbicidal action against SETVI
Nc1cc(-c2ccc3occc3c2)nc(C(=O)OCc2cccc(Cl)c2)c1Cl [Example I-38] | 90%
Nc1cc(-c2ccc3ncsc3c2)nc(C(=O)OCc2ccc(F)cc2F)c1Cl [Example I-39] | 100%
Nc1cc(-c2ccc3ccoc3c2F)nc(C(=O)OCc2ccc(Cl)cc2)c1Cl [Example I-49] | 80%
Nc1c(F)c(-c2ccc3sccc3c2)nc(C(=O)OCc2ccc(F)cc2F)c1Cl [Example I-56] | 80%
COc1c(Cl)ccc(Cl)c1COC(=O)c1nc(-c2ccc3occc3c2)cc(N)c1Cl [Example I-57] | 80%
Nc1c(F)c(-c2ccc3sccc3c2)nc(C(=O)OCc2c(F)cc(F)cc2F)c1Cl [Example I-59] | 80%
Nc1c(F)c(-c2ccc3ncsc3c2)nc(C(=O)OCc2ccc(Cl)cc2)c1Cl [Example I-64] | 90%

Same assay, conditions: Table 7, post-emergence (PO), 320 g/ha, assessed after about 3 weeks

Compound | Herbicidal action against SETVI
Nc1cc(-c2ccc3ncsc3c2)nc(C(=O)OCc2cccc(Cl)c2)c1Cl [Example I-60] | 80%
Nc1cc(-c2ccc3ncsc3c2)nc(C(=O)OCc2ccc(Cl)cc2)c1Cl [Example I-69] | 80%

Same assay, conditions: Table 8, post-emergence (PO), 320 g/ha, assessed after about 3 weeks

Compound | Herbicidal action against SETVI
Nc1cc(-c2ccc3ncsc3c2)nc(C(=O)OCc2cccc(Cl)c2)c1Cl [Example I-60] | 80%
Nc1cc(-c2ccc3ncsc3c2)nc(C(=O)OCc2ccc(Cl)cc2)c1Cl [Example I-69] | 80%

These compounds were tested on STEME (assay: Post-emergence herbicidal action). Conditions: Table 6, post-emergence (PO), 320 g/ha, assessed after about 3 weeks.
Assay type: in vivo
Method: as §3

Compound | Herbicidal action against STEME
Nc1cc(-c2ccc3occc3c2)nc(C(=O)OCc2cccc(Cl)c2)c1Cl [Example I-38] | 100%
Nc1cc(-c2ccc3ncsc3c2)nc(C(=O)OCc2ccc(F)cc2F)c1Cl [Example I-39] | 70%
Nc1cc(-c2ccc3ccoc3c2F)nc(C(=O)OCc2ccc(Cl)cc2)c1Cl [Example I-49] | 90%
Nc1c(F)c(-c2ccc3sccc3c2)nc(C(=O)OCc2ccc(F)cc2F)c1Cl [Example I-56] | 90%
COc1c(Cl)ccc(Cl)c1COC(=O)c1nc(-c2ccc3occc3c2)cc(N)c1Cl [Example I-57] | 70%
Nc1c(F)c(-c2ccc3sccc3c2)nc(C(=O)OCc2c(F)cc(F)cc2F)c1Cl [Example I-59] | 90%
Nc1c(F)c(-c2ccc3ncsc3c2)nc(C(=O)OCc2ccc(Cl)cc2)c1Cl [Example I-64] | 40%

Reference: patent US20200187499A1, “SUBSTITUTED BENZYL-4-AMINOPICOLINIC ESTERS AND PYRIMIDINO-4-CARBOXYLIC ESTERS, METHODS FOR THE PRODUCTION THEREOF, AND USE THEREOF AS HERBICIDES AND PLANT GROWTH REGULATORS” (Bayer CropScience Aktiengesellschaft, priority 2017, published 2020)
